# Reference: publication PMC9995496, “A screen for MeCP2-TBL1 interaction inhibitors using a luminescence-based assay” (Scientific Reports, 2023)
# Biological target: T1, MeCP2-TBL1 interaction (MeCP2-SmBiT / TBL1-LgBiT) (Mus musculus, UniProt Q9QXE7)
# T1 construct: expressed in transfected cells; crude lysate used as a cell-free assay
# T1 sequence (Q9QXE7 166-527): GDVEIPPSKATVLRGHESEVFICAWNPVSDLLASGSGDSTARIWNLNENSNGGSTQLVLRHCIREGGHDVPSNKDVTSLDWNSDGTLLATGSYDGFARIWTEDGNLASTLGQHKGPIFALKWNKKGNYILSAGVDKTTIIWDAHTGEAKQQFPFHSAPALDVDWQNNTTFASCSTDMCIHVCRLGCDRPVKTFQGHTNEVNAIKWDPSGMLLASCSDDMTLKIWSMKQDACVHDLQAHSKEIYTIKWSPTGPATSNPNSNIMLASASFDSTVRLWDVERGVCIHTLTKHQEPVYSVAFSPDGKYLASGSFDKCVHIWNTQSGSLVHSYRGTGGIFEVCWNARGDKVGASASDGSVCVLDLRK
# Assay: MeCP2-TBL1 NanoLuc luciferase complementation assay (cell-free, extracts of transfected HEK293 cells);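 note: each compound tested at 20 µM final concentration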
# Format: binding, human
# Conditions: primary screen of Asinex library, single well per compound
# How it was run: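 Cell-free split NanoLuc: lysate of HEK293 cells co-expressing the MeCP2 C-terminal half-SmBiT and TBL1 WD domain-LgBiT, mixed 1:1 with furimazine. After 30 min at room temperature, luminescence was plate-median normalized.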
row,Inhibition percent,SMILES
1,5.31,Cc1cnn(CC(=O)N2CCC3(CC2)Oc2ccc(Cl)cc2[C@H]2OCCC[C@@H]23)c1 [BDG_33900405]
2,0.92,Cc1ccc2c(c1)OC1(CCN(Cc3ccc(Cl)cn3)CC1)[C@H]1CCCO[C@H]21 [BDG_33900424]
3,0.48,CC1(C)Oc2ccccc2[C@@H]2O[C@@H]3CCN(C(=O)CCN4CCCC4=O)[C@@H]3C[C@H]21 [BDG_33901240]
4,0.54,CC(=O)N[C@H](CC(N)=O)C(=O)N1CC[C@@H]2O[C@@H]3c4ccccc4OC(C)(C)[C@H]3C[C@@H]2C1 [BDG_33905309]
5,1.80,C[C@@H]1CC[C@@H]2[C@@H](C1)c1c(ccc(C(=O)NCC(C)(C)CN3CCCC3)c1O)OC2(C)C [BDG_34018827]
6,19.22,CC(C)CCC[C@@]1(C)Oc2cc(O)ccc2[C@H]2OCC3(CCNCC3)C[C@@H]21 [BDG_34020305]
7,6.14,Cc1c(CN2C[C@H](c3ccc(F)cc3)[C@@H](O)[C@H]2C(=O)NCCc2ccccc2)[nH]c2ccc(F)cc12 [BDG_34027529]
8,1.80,CN(C)C(=O)[C@@H]1C[C@@H](n2cc(C(=O)NCCc3ccccc3)ccc2=O)[C@H](c2ccccc2)N1C [BDG_34039793]
9,0.20,CC1(C)Oc2ccc(OCc3ccccc3)cc2[C@@H]2O[C@H](CC(=O)O)CC[C@H]21 [BDG_34041764]
10,-0.28,O=C(O)CCC(=O)N[C@@H]1C[C@@H](Oc2cccc(C(F)(F)F)c2)[C@H](O)[C@H]1N1CCc2ccccc2C1 [BDG_34049652]
11,-1.01,CN(Cc1ccccc1)[C@@H]1[C@@H](O)[C@H](Oc2cccc(C(F)(F)F)c2)C[C@H]1NC(=O)CCN [BDG_34056156]
12,-2.31,COc1cccc2c1OC(C)(C)[C@H]1C[C@@H]3[C@H](CCN3CC(=O)O)O[C@H]21 [BDG_34128979]
13,-3.21,O=C1CCCC[C@]2(CN(C(=O)CCCc3cn[nH]c3)C[C@H]2c2ccccc2F)N1 [BDG_34130330]
14,7.09,CC1(C)Oc2c(cccc2C(F)(F)F)[C@@H]2O[C@@H]3CCN(C(=O)CCCc4cn[nH]c4)[C@@H]3C[C@H]21 [BDG_34130346]
15,1.08,CC1(C)Oc2c(O)cccc2[C@@H]2O[C@@H]3CCN(C(=O)CCCc4cn[nH]c4)C[C@@H]3C[C@H]21 [BDG_34130377]
16,0.45,CC(C)(CC(=O)O)CC(=O)N1CC[C@@H]2O[C@@H]3c4cc(Cl)ccc4OC(C)(C)[C@H]3C[C@@H]2C1 [BDG_34130555]
17,3.20,CC(=O)NCCCCCC(=O)N1CC[C@H]2O[C@H]3c4cc(C(C)(C)C)ccc4OC(C)(C)[C@@H]3C[C@@H]21 [BDG_34131400]
18,3.80,CC(=O)NCCCCCC(=O)N1C[C@@H](c2ccc(F)cc2)[C@@]2(CCCCC(=O)N2)C1 [BDG_34131511]
19,-0.29,CCOc1cccc2c1OC(C)(C)[C@@H]1C[C@@H]3[C@@H](CCCN3C(=O)c3cccc(F)c3C(=O)O)O[C@@H]21 [BDG_34132357]
20,-3.82,COc1ccccc1N1[C@H]2CCCN(C(=O)c3cccc(OCC(=O)O)c3)[C@H]2CC1(C)C [BDG_34133274]
21,2.13,O=C(O)COc1cccc(C(=O)N2C[C@@H](c3ccccc3F)[C@@]3(CCCCC(=O)N3)C2)c1 [BDG_34133280]
22,1.43,CC1(C)Oc2ccc(Cl)cc2[C@H]2O[C@H]3CCN(C(=O)c4ccccc4OCC(=O)O)C[C@H]3C[C@@H]21 [BDG_34133540]
23,5.67,CC1(C)Oc2c(O)cccc2[C@H]2O[C@H]3CCN(C(=O)c4cccc(Cn5ccnc5)c4)[C@@H]3C[C@@H]21 [BDG_34133876]

# Same assay, conditions: primary screen of the Asinex library, sheet "Sargen output Asinex library", one well per compound
row,Inhibition percent [%],SMILES
1,-3.00,CC(C)N1CC[C@H]2O[C@H]3c4ccccc4OC(C)(C)[C@@H]3C[C@H]21 [BDG_33900670]
2,0.0324,COCC(=O)N1CC[C@H]2O[C@H]3c4ccccc4OC(C)(C)[C@@H]3C[C@H]21 [BDG_33900725]
3,-1.08,Clc1ccc2c(c1)[C@H]1OCCC[C@@H]1C1(CCN(CC3CCOCC3)CC1)O2 [BDG_33901423]
4,2.57,C[C@@H]1CC[C@@H]2[C@@H](C1)c1c(ccc(C(=O)O)c1O)OC2(C)C [BDG_33904752]
5,0.74,O=[N+]([O-])c1ccc2c(c1)[C@H]1OCCC[C@@H]1C1(CCCCC1)O2 [BDG_33907582]
6,2.11,CC(C)(C)OC(=O)N1CC[C@H]2O[C@H]3c4ccc(O)cc4OC(C)(C)[C@@H]3C[C@@H]2C1 [BDG_33953342]
7,-3.58,CC1(C)Oc2ccccc2[C@@H]2O[C@@H]3CCCN[C@@H]3C[C@H]21 [BDG_33956274]
8,-0.94,CCOc1cccc2c1OC(C)(C)[C@@H]1C[C@@H]3CNCC[C@H]3O[C@@H]21 [BDG_33956280]
9,0.05,COc1cccc2c1OC(C)(C)[C@H]1CC3(CCNCC3)[C@H](C)O[C@H]21 [BDG_33959669]
10,-0.86,C[C@@H]1CC[C@@H]2[C@@H](O1)c1cc(C(=O)NCCc3ccccc3)ccc1OC2(C)C [BDG_34018895]
11,2.58,O=C(NCCc1ccccc1)[C@@H]1[C@H](O)[C@@H](c2ccc(F)cc2)CN1C(=O)CCc1ccc(Cl)cc1 [BDG_34023221]
12,0.0122,C[C@@H]1CC[C@@H]2[C@@H](O1)c1cc(OCc3ccccc3)c(C=O)cc1OC2(C)C [BDG_34027484]
13,-0.0357,C[C@@H]1CC[C@@H]2[C@@H](O1)c1cc(OCc3ccccc3)c(CO)cc1OC2(C)C [BDG_34027487]
14,7.44,CC(C)C[C@H]1CN(C(=O)c2ccc(O)cc2)CC[C@H]1Nc1cccc(Cl)c1 [BDG_34030674]
15,-0.90,COc1cccc2c1OC(C)(C)[C@H]1CC[C@H](C3CCN(C(=O)CCCC(=O)O)CC3)O[C@H]21 [BDG_34129516]
16,2.74,CC1(C)Oc2ccccc2[C@H]2O[C@H]3CCN(C(=O)c4cccc(OCC(=O)O)c4)C[C@@H]3C[C@@H]21 [BDG_34133285]

# Same assay, conditions: primary screen of the Asinex library, sheet "Sargen output Asinex library", one well per compound, Batch Ref. 1
row,Inhibition percent [%],SMILES
1,-2.85,COc1cccc2c1OC1(CCN(C(=O)C(C)(C)OC)CC1)[C@H]1CCCO[C@H]21 [BDG_33900230]
2,6.42,COc1cccc2c1OC1(CCN(Cc3cccc(O)c3)CC1)[C@H]1CCCO[C@H]21 [BDG_33900272]
3,10.01,COc1ccccc1C(=O)N1CCC2(CC1)Oc1ccc(Cl)cc1[C@H]1OCCC[C@@H]12 [BDG_33900472]
4,-0.96,CS(=O)(=O)c1ccc(CN2CCC3(CC2)Oc2ccc(Cl)cc2[C@H]2OCCC[C@@H]23)cc1 [BDG_33900656]
5,9.91,C[C@@H]1CC[C@@H]2[C@@H](C1)c1c(ccc(C(=O)NCCN(C)C)c1O)OC2(C)C [BDG_33904603]
6,-0.13,CC(=O)N[C@@H](Cc1c[nH]c2ccccc12)C(=O)N1CC[C@H]2O[C@H]3c4cc(Cl)ccc4OC(C)(C)[C@@H]3C[C@H]2C1 [BDG_33905586]
7,5.54,CC(C)=CCC[C@@]1(C)Oc2cc(OCCO)ccc2[C@H]2O[C@H]3CCN(C(=O)OC(C)(C)C)C[C@@H]3C[C@@H]21 [BDG_33958723]
8,-1.63,CC(C)[C@H](NC(=O)[C@H](C)N)C(=O)N1CCC[C@H]2O[C@H]3c4cc(Cl)ccc4OC(C)(C)[C@@H]3C[C@H]21 [BDG_34017951]
9,1.89,CC(C)CCC[C@]1(C)Oc2ccccc2[C@H]2OCC3(CCCN3)C[C@@H]21 (stereo partly shown) [BDG_34020347]
10,2.57,COC(=O)C[C@H]1CC[C@H]2[C@H](O1)c1cc(-c3ccccc3)ccc1OC2(C)C [BDG_34023292]
11,-1.30,COc1ccc2c(c1)OC(C)(C)[C@H]1CC[C@H](C)O[C@H]21 [BDG_34023313]
12,6.48,CC1(C)Oc2ccc(O)cc2[C@H]2O[C@@H](c3ccccc3)CC[C@@H]21 [BDG_34039634]
13,0.88,Cc1cc(O[C@@H]2C[C@@H](NC(=O)CCC(=O)O)[C@H](N3CCc4ccccc4C3)[C@H]2O)cc(C(C)C)c1 [BDG_34049574]
14,-0.68,O=C(O)CCC(=O)N[C@@H]1C[C@@H](Oc2cccc(Cl)c2)[C@H](O)[C@H]1N1CCc2ccccc2C1 [BDG_34049608]
15,-1.72,O=C(O)c1cc(F)ccc1Oc1ccccc1 [BDG_34062401]
16,5.43,CC1(C)Oc2cc(OCCCNS(C)(=O)=O)ccc2[C@@H]2O[C@H](CCc3ccc(F)cc3)CC[C@H]21 [BDG_34121335]
17,0.89,CC1(Cc2ccc(F)cc2)Cc2cc(C(=O)N(CCCc3ccc(Cl)cc3)CC(=O)O)ccc2O1 (stereo not shown) [BDG_34127624]
18,-1.85,COc1cccc2c1OC(C)(C)[C@H]1CC[C@H](C3CCN(CC(=O)O)CC3)O[C@H]21 [BDG_34129039]
19,5.44,CC1(C)Oc2cc(O)ccc2[C@@H]2O[C@@H]3CCCN(C(=O)CCCC(=O)O)[C@@H]3C[C@H]21 [BDG_34129513]
20,0.07,CN(C)CCOc1cccc2c1OC(C)(C)[C@H]1C[C@H]3CN(C(=O)CCCC(=O)O)CC[C@@H]3O[C@H]21 [BDG_34129529]
21,14.87,CC1(C)C[C@H]2[C@H](CCCN2C(=O)CCCc2cn[nH]c2)N1c1cccc(C(F)(F)F)c1 [BDG_34130326]
22,-2.82,CC1(C)Oc2ccc(O)cc2[C@H]2O[C@H]3CCN(C(=O)c4cccc(OCC(=O)O)c4)[C@@H]3C[C@@H]21 [BDG_34133313]
